Columns and labels:
[1] = tested on: intimal hyperplasia; experiment: Rat balloon injury carotid artery model, paclitaxel containing mesh; format: in vivo; conditions: 1×1 cm paclitaxel-containing mesh (345 μg paclitaxel in 50:50 PLG coating on 10:90 PLG mesh), perivascular, 14 days after balloon injury
Protocol: Wistar rats weighing 400-500 g were anesthetized with 1.5% halothane in oxygen and the left external carotid artery was exposed. An A 2 French Fogarty balloon embolectomy catheter (Baxter, Irvine, Calif.) was advanced through an arteriotomy in the external carotid artery down the left common carotid artery to the aorta. The balloon was inflated with enough saline to generate slight resistance (approximately 0.02 ml) and it was withdrawn with a twisting motion to the carotid bifurcation. The balloon was then deflated and the procedure repeated twice more. This technique produced distension of the arterial wall and denudation of the endothelium. The external carotid artery was ligated after removal of the catheter. The right common carotid artery was not injured and was used as a control.
Immediately after injury of the left common carotid artery, a 1 cm long distal segment of the artery was exposed and treated with a 1×1 cm paclitaxel-containing mesh. The wound was then closed the animals were kept for 14 days.
At the time of sacrifice, the animals were euthanized with carbon dioxide and pressure perfused at 100 mmHg with 10% phosphate buffered formaldehyde for 15 minutes. Both carotid arteries were harvested and left overnight in fixative. The fixed arteries were processed and embedded in paraffin wax. […]

[2] = tested on: intimal hyperplasia; experiment: Sheep carotid artery bypass graft (ePTFE) model, paclitaxel containing mesh; conditions: for Percent Change in Maximal Intimal Thickness / Percent Change in % Stenosis / Percent Change in Intimal Area: vs zero-dose mesh;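 on all read-outs here: sheep with ePTFE carotid bypass grafts, PLG mesh wrapped at the distal anastomosis, histology of fixed graft and artery sections about 56 days after implantation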
Protocol: The left and right carotid arteries of anesthetized sheep were exposed by sharp dissection. A tunnel was formed from one carotid artery to the other to accommodate the ePTFE graft. The ePTFE graft was tunneled and trimmed for appropriate length and configuration. Using standard vascular technique, the ePTFE graft was anastomosed end-to-side with running 6-0 polypropylene suture. The angle of the junction between graft and native vessel was approximately 45°. The length of the implanted graft ranged from 9.5-15 cm (average 11 cm).
Paclitaxel was incorporated into the 2 cm×5 cm PLG mesh in the following doses and animal test groups: Group 1, 0 mg; Group 2, 0.6 mg; Group 3, 1.8 mg; and Group 4, 3.0 mg. The mesh was placed at the distal end of the graft at the anastomosis site. To place the mesh, the long side was pulled under the artery and up around either side of the distal end of the graft. One edge was positioned as close to the heel of the anastomosis as possible. The top edges of the mesh were sewn together with one suture on either side of the graft so that no gaps were left in the circumferential direction. One suture was placed at the proximal end and the other at the distal end of the mesh, and sewn to nearby connective tissue to prevent slippage of the mesh away from the anastomosis (see FIG. 6). The surgical sites were closed in layers with running absorbable sutures. Standard antibiotics and analgesics were administered after surgery for several days as required.
At approximately 56 days post-graft implant, animals were anesthetized. Contrast media was injected and angiograms performed of the distal graft and artery at the distal anastomosis. Immediately prior to euthanasia, the animals received heparin (150 U/kg, IV) and immediately after euthanasia, the ePTFE graft was rinsed in situ with lactated Ringers solution and perfusion-fixed in situ with 10% neutral buffered formalin (NBF). The specimens were excised en bloc and allowed to immersion fix in 10% NBF at least 24 hours prior to histological processing.
The fixed specimens were trimmed and mapped accurately for corresponding cross sectional location in reference to the ePTFE graft configuration. […] A total of nine sections were cut at the distal end of the graft: two cut perpendicular to the artery on either side of the anastomosis (A1 and A5), one perpendicular to the artery through the “toe” of the anastomosis (A2), one or two cut through the floor of the anastomosis adjacent to the “toe” (A3 and A4), three cut perpendicular to the graft at its distal end, and one through the center of the graft. Adjacent sections were cut at approximately 3 mm intervals. The specimens were paraffin-embedded, cross-sectioned, and four sets of slides made, two stained with hematoxylin and eosin (H&E), and one each stained with Masson's trichrome and Verhoeff Van Gieson (VVG). These stains were selected for their ability to show tissue cellularity (H&E), collagen, smooth muscle and fibrin (Masson's Trichrome), and elastin (VVG).
The morphometric analysis system consists of an Olympus BX40 microscope, Optronics Image Sensor DEI-750, Sony HR Trinitron monitor, and PC computer equipped with Media Cybernetics Image-Pro Plus software v.

[3] = Dose 0.6 (mg in PLG mesh, Group 2), Graft Section 6, approx. 56 days
[4] = Dose 0.6 (mg in PLG mesh, Group 2), Graft Section 7, approx. 56 days
[5] = Dose 0.6 (mg in PLG mesh, Group 2), Graft Section 8, approx. 56 days
[6] = Dose 1.8 (mg in PLG mesh, Group 3), Graft Section 6, approx. 56 days
[7] = Dose 1.8 (mg in PLG mesh, Group 3), Graft Section 7, approx. 56 days
[8] = Dose 1.8 (mg in PLG mesh, Group 3), Graft Section 8, approx. 56 days
[9] = Dose 3.0 (mg in PLG mesh, Group 4), Graft Section 6, approx. 56 days
[10] = Dose 3.0 (mg in PLG mesh, Group 4), Graft Section 7, approx. 56 days
[11] = Dose 3.0 (mg in PLG mesh, Group 4), Graft Section 8, approx. 56 days

Question: How did the “intimal hyperplasia (histology, FIGS. 3-5)” value [1] turn out when `CC(=O)O[C@H]1C(=O)[C@@]2(C)[C@H]([C@H](OC(=O)c3ccccc3)[C@]3(O)C[C@H](OC(=O)[C@H](O)[C@@H](NC(=O)c4ccccc4)c4ccccc4)C(C)=C1C3(C)C)[C@]1(OC(C)=O)CO[C@@H]1C[C@@H]2O` [Paclitaxel, paclitaxel] was run?
Answer: dramatic reduction in intimal hyperplasia

Question: And the “Percent Change in Maximal Intimal Thickness” value ([2]; Dose 0.6 (mg in 2 cm×5 cm PLG mesh, Group 2), Graft "Toe" Section 2, approx. 56 days)?
Answer: −5%

Question: What about the “Percent Change in % Stenosis” value [2, 3] of the same molecule?
Answer: −59%^

Question: And the “Percent Change in Intimal Area” value [2, 3]?
Answer: −62%^

Question: And the “Percent Change in Maximal Intimal Thickness” value [2, 3]?
Answer: −71%^2

Question: What about the “Percent Change in % Stenosis” value [2, 4] of the same molecule?
Answer: −66%^2

Question: And the “Percent Change in Intimal Area” value [2, 4]?
Answer: −67%^2

Question: What about the “Percent Change in Maximal Intimal Thickness” value [2, 4] of the same molecule?
Answer: −65%

Question: What about the “Percent Change in % Stenosis” value [2, 5] of the same molecule?
Answer: −75%^2

Question: And the “Percent Change in Intimal Area” value [2, 5]?
Answer: −77%

Question: And the “Percent Change in Maximal Intimal Thickness” value [2, 5]?
Answer: −59%

Question: And the “Percent Change in Maximal Intimal Thickness” value ([2]; Dose 1.8 (mg in PLG mesh, Group 3), Graft "Toe" Section 2, approx. 56 days)?
Answer: −28%

Question: What about the “Percent Change in % Stenosis” value [2, 6] of the same molecule?
Answer: −84%^2

Question: And the “Percent Change in Intimal Area” value [2, 6]?
Answer: −85%^2

Question: And the “Percent Change in Maximal Intimal Thickness” value [2, 6]?
Answer: −77%^2

Question: And the “Percent Change in % Stenosis” value [2, 7]?
Answer: −85%^2

Question: What about the “Percent Change in Intimal Area” value [2, 7] of the same molecule?
Answer: −85%^2

Question: What about the “Percent Change in Maximal Intimal Thickness” value [2, 7] of the same molecule?
Answer: −71%^2

Question: And the “Percent Change in % Stenosis” value [2, 8]?
Answer: −75%^2

Question: And the “Percent Change in Intimal Area” value [2, 8]?
Answer: −76%

Question: What about the “Percent Change in Maximal Intimal Thickness” value [2, 8] of the same molecule?
Answer: −63%

Question: What about the “Percent Change in Maximal Intimal Thickness” value ([2]; Dose 3.0 (mg in PLG mesh, Group 4), Graft "Toe" Section 2, approx. 56 days) of the same molecule?
Answer: −34%

Question: And the “Percent Change in % Stenosis” value [2, 9]?
Answer: −81%^2

Question: What about the “Percent Change in Intimal Area” value [2, 9] of the same molecule?
Answer: −82%^2

Question: And the “Percent Change in Maximal Intimal Thickness” value [2, 9]?
Answer: −74%^2

Question: What about the “Percent Change in % Stenosis” value [2, 10] of the same molecule?
Answer: −79%^2

Question: And the “Percent Change in Intimal Area” value [2, 10]?
Answer: −80%^2

Question: What about the “Percent Change in Maximal Intimal Thickness” value [2, 10] of the same molecule?
Answer: −69%

Question: And the “Percent Change in % Stenosis” value [2, 11]?
Answer: −86%^

Question: What about the “Percent Change in Intimal Area” value [2, 11] of the same molecule?
Answer: −86%

Question: What about the “Percent Change in Maximal Intimal Thickness” value [2, 11] of the same molecule?
Answer: −83%^2

Question: And the “MIT (maximal neointimal thickness), group average ±SD” value (shortened to “MIT … group average ±SD”) ([2]; Section 2 ("toe" section), high dose (3.0 mg), approx. 56 days)?
Answer: 0.54±0.23 mm

Question: And the “MIT less than controls” value ([2]; Section 2 ("toe" section), high dose (3.0 mg), not statistically significant (p>0.05))?
Answer: 34%

Question: And the “MIT … group average ±SD” value ([2]; Section 2 ("toe" section), low dose (0.6 mg), approx. 56 days)?
Answer: 0.78±0.30 mm

Question: And the “MIT less than controls” value ([2]; Section 2 ("toe" section), low dose (0.6 mg), not statistically significant (p>0.05))?
Answer: 5%

Question: And the “MIT … group average ±SD” value ([2]; Section 2 ("toe" section), mid dose (1.8 mg), approx. 56 days)?
Answer: 0.59±0.14 mm

Question: And the “MIT less than controls” value ([2]; Section 2 ("toe" section), mid dose (1.8 mg), not statistically significant (p>0.05))?
Answer: 28%

Question: What about the “mechanical integrity of the anastomosis (leakage)” value ([2]; dose range tested (0.6-3.0 mg in mesh)) of the same molecule?
Answer: does not affect the mechanical integrity of the anastomosis

Question: And the Intraluminal endothelialization ([2]; doses tested (0.6-3.0 mg in mesh))?
Answer: not affected

Question: And the “lesions causing luminal narrowing at the distal end of the graft” value ([2]; lowest paclitaxel dose, 0.6 mg)?
Answer: marked and signifimayt reduction

Question: And the reduction in stenosis ([2]; paclitaxel groups (0.6, 1.8, 3.0 mg), sections 6, 7, 8, 7 of 9 values significantly lower than controls (p≦0.05))?
Answer: 70-80%

Question: And the “IA (neointimal area) reduced” value ([2]; paclitaxel groups (0.6, 1.8, 3.0 mg), sections 6, 7, 8, vs control group)?
Answer: 70-80%

Question: What about the “MIT … group average ±SD” value ([2]; section 6 (first full cross section of graft adjacent to the distal anastomosis), low dose (0.6 mg), p<0.05) of the same molecule?
Answer: 0.38±0.12 mm

Question: And the “MIT … group average ±SD” value ([2]; section 6, high dose (3.0 mg), p<0.05)?
Answer: 0.34±0.20 mm

Question: What about the “MIT … group average ±SD” value ([2]; section 6, medium dose (1.8 mg), p<0.05) of the same molecule?
Answer: 0.31±0.29 mm

Question: What about the “MIT less than controls” value ([2]; sections 7 and 8, all the paclitaxel groups (0.6, 1.8, 3.0 mg)) of the same molecule?
Answer: approximately 70%

Reference: US20080085855A1, “Perivascular wraps” (Angiotech International AG, priority 2002, published 2008)
